Here are results for 20 compounds from US9278527B2, “Ink jet recording ink, ink jet recording method, ink jet recording head, and ink jet recording apparatus” (CANON FINETECH INC., priority 2013, dated 2016).

Like-named read-outs stand apart in the source and are kept apart here.

Data set [1] in a line: Hydrophilicity-hydrophobicity coefficient from water activity value of 20% aqueous solution (equation (A)). It counts as physicochemical.
[2] abbreviates: 20% aqueous solution, water activity by chilled mirror dew point method (AquaLab CX-3TE) at 25° C., equation (A).

The compound `CC(O)C(O)CO` (stereo not drawn) [1,2,3-Butanetriol] gave a Hydrophilicity-hydrophobicity coefficient in data set [1] (setting [2]) of 0.22. In the data set “Solubility in water”, this compound gave a Solubility of over 20 g/100 g H2O.
The corresponding values for `OCCC(O)CO` (stereo not drawn) [1,2,4-Butanetriol] are 0.15 and over 20 g/100 g H2O.
`OCCCCC(O)CO` (stereo not drawn) [1,2,6-Hexanetriol] showed a Hydrophilicity-hydrophobicity coefficient in data set [1] (setting [2]) of 0.28. The same compound displayed a Solubility in the data set “Solubility in water” of over 20 g/100 g H2O.
For the compound `CCC(O)CO` (stereo not drawn) [1,2-Butanediol], the Hydrophilicity-hydrophobicity coefficient in data set [1] (setting [2]) is listed as 0.90. In “Solubility in water”, this compound had a Solubility of over 20 g/100 g H2O.
Regarding `CCCCC(O)CO` (stereo not drawn) [1,2-Hexanediol], the Hydrophilicity-hydrophobicity coefficient in data set [1] (setting [2]) turned out to be 0.97. In “Solubility in water”, the Solubility was over 20 g/100 g H2O.
The corresponding values for `CCCC(O)CO` (stereo not drawn) [1,2-Pentanediol] are 0.93 and over 20 g/100 g H2O.
Taken in the same sequence, the figures for `OCCCCCO` [1,5-Pentanediol] were 0.41 and over 20 g/100 g H2O.
In the case of `OCCCCCCO` [1,6-Hexanediol], the Hydrophilicity-hydrophobicity coefficient in data set [1] (setting [2]) amounted to 0.76. The Solubility in “Solubility in water” is over 20 g/100 g H2O.
Compound `OCCCCCCCO` [1,7-Heptanediol] showed a Hydrophilicity-hydrophobicity coefficient in data set [1] (setting [2]) of 0.73. In addition, in “Solubility in water”, the Solubility was over 20 g/100 g H2O.
The corresponding values for `CC(O)CC(C)O` (stereo not drawn) [2,4-Pentanediol] are 0.86 and over 20 g/100 g H2O.
Taken in the same sequence, the figures for `CC(C)(O)CCO` [3-Methyl-1,3-butanediol] were 0.90 and over 20 g/100 g H2O.
For the compound `CC(CCO)CCO` [3-Methyl-1,5-Pentanediol], the Hydrophilicity-hydrophobicity coefficient in data set [1] (setting [2]) stood at 0.54. In the data set “Solubility in water”, the Solubility is over 20 g/100 g H2O.
Taken in the same sequence, the figures for `O=C1NCCN1` [Ethylene urea] were 0.30 and over 20 g/100 g H2O.
The corresponding values for `OCC(O)CO` [Glycerin] are 0.11 and over 20 g/100 g H2O.
The corresponding values for `OC[C@@H](O)[C@@H](O)[C@H](O)[C@@H](O)CO` [Sorbitol] are 0.21 and over 20 g/100 g H2O.
The compound `OCCOCCOCCO` [Triethylene glycol] showed a Hydrophilicity-hydrophobicity coefficient in data set [1] (setting [2]) of 0.07. In the data set “Solubility in water”, the Solubility is over 20 g/100 g H2O.
Taken in the same sequence, the figures for `NC(N)=O` [Urea] were 0.20 and over 20 g/100 g H2O.
In data set [1], Bishydroxyethyl sulfone gave a Hydrophilicity-hydrophobicity coefficient of 0.21.
For the compound Polyethylene glycol 200, the Hydrophilicity-hydrophobicity coefficient in data set [1] (setting [2]) is reported as −0.09. Moreover, in the data set “Solubility in water”, the Solubility was over 20 g/100 g H2O.
The corresponding values for Polyethylene glycol 600 are −0.43 and over 20 g/100 g H2O.
